A short description of series [1]: Determination of absolute bioavailability in Beagle dogs (oral vs intravenous, plasma LC-MS/MS). To be noted: dog, male Beagle dogs, oral powder in capsules 3 mg/kg vs intravenous bolus 1, 3 and 10 mg/kg. Format: in vivo. The text has this:
Protocol for Determination of Absolute Bioavailability
The study used male Beagle dogs, aged between 2 to 4 years old, weighing between 8 to 12 kg, and kept in food control and disposal of water ad libitum during the study.
The dogs were shaving in the radial portion of the front paws, performing aseptic on site with the aid of moistened gauze with 70% alcohol.
Entered the 21G catheter (one in each paw in the intravenous administration protocol and a single paw in the oral administration protocol) in order to access the cephalic vein.
The blood samples were collected from animals depending on the established sampling times by taking 1.5 mL of blood using a 3 mL syringe. The samples were transferred to heparinized tube collection.
c) Route of Administration
The administration of the study compounds was made orally and intravenously.
The intravenous administration of the compounds was carried out in bolus, and has through one of the cephalic veins of dogs. Concentrations were administered 1 mg/kg; 3 mg/kg and 10 mg/kg in one, on different days.
The oral administration of the drug was provided as a powder in capsules at the dose of 3 mg/kg, which were all completely ingested by dogs.
For the intravenous administration, the blood samples (1.5 ml) were collected in the following predetermined time intervals: 0, 0.033, 0.083, 0.17, 0.25, 0.33, 0 5; 1; 2; 3; 4; 6; 8; 12 and 24 hours.
For the oral administration, the blood samples (1.5 ml) were collected in the following predetermined time intervals: 0, 0.33, 0.67, 1, 1.5, 2, 3, 4, and 6, 8, 12 and 24 hours.
The compounds tested are II, IV, VI, and XI; described in TABLE 1.
The heparinized tubes collections were placed in a centrifuge and were processed for 10 minutes at 2500 rpm per minute. The plasma was separated and put into other tubes. The plasma was analyzed by Liquid chromatography-tandem mass spectrometry (LC-MS/MS).

Another series concerns the target T1, Guanylate Cyclase-C (Homo sapiens, UniProt P25092).
T1 construct: host or cells: T84 cells
Nature of the series: Stimulation of guanylate cyclase-C induced by the toxin STa in T84 cells (cGMP accumulation). Format: cell-based. As to conditions: for inhibition at 50 µM: T84, test compound 50 μM vs STa (1 μM) group, read-out: % of inhibition (Compound x STa); for cGMP, pmol/10 min/mg: test compound 50 μM, 10 min pre-incubation, then STa 1 μM for 10 min, T84 cells, mean ± SEM. Here is the method:
Protocol for the Stimulation of Guanylate Cyclase-C Induced by the Toxin STa in T84 Cells
Cells from the T84 line (ATCC CCL-248) are subculture according to supplier's instructions. Briefly, after washing the culture flask (75 cm^2) using 3 mL of 0.25% Trypsin solution (w/v) and 0.53 mM EDTA solution to remove the traces of serum, the same volume of trypsin is added to each bottle, and cells are observed under a microscope until detachment of the cellular layer (usually 8-10 minutes).
Preparation of assay plates (12-well plates) follows after adding 8 mL of culture medium (DMEM-F12 supplemented with 10% fetal bovine serum and penicillin-streptomycin (50 IU/mL:50 μg/mL) and centrifugation of the cell homogenate at 2000 rpm for 5 minutes (at 25° C.).
With the aid of a 1 mL pipet connected to a vacuum pump, the supernatant is aspirated and the cells resuspended with culture medium (with necessary volume to maintain the ratio of 1:4, i.e. 1 culture flask originates 4 12-well plates). After homogenization of the cells, with an aid of a pipette, it is added 2 mL of the cell suspension to each well of the plate. The growth occurs in an incubator under controlled conditions (37° C., 5% CO2 atmosphere) until confluence of each well (typically 8-10 days).
Initially, the culture medium is aspirated using a 1 mL pipette connected to a vacuum pump and the cells are washed at least 3 times with 0.5 mL of a Dulbecco Phosphate Buffered Saline (DPBS; 37° C.) using a 1 mL pipette attached to one the vacuum pump. In the sequence, 0.5 mL of DPBS is added in the presence and/or absence of 1-metil-3-isobutyl xanthine (1 mM), dimethylsulfoxide (0.1% v/v) and the test compound and incubated for 10 minutes in an oven (37° C., 5% CO2 atmosphere).
After the incubation period, the cells are stimulated with STa toxin (1 μM, 5 μL) and incubated in an incubator (37° C., 5% CO2 atmosphere) for 10 minutes. After the stimulation period, the volume of the supernatant is aspirated using a 1 mL pipette connected to a vacuum pump and the cGMP is extracted by the addition of a hydrochloric acid solution 0.1 M (0.3 mL, using a pipette), pH 4, under constant stirring (speed 4) in a shaker type “rotator” (Lab-line Instruments, model number 4625), for 20 minutes. After the extraction period, the volume of each well is centrifuged (15000 rpm, 5 minutes, 25° C.) and an aliquot of the supernatant (0.3 mL) is quickly stored in a freezer at −20° C. for the subsequent quantification of the content of cGMP by the immunoassay method developed and described by HORTON et al. (1992) [Horton, J. K.; Martin, R. C.; Kalinka, S.; Cushing, A.; Kitcher, J. P.; O'Sullivan, M. J.; Baxendale, P. M., “Enzime immunoassays for the estimation of adenosine 3′,5′ cyclic monophosphate and guanosine 3′,5′ cyclic monophosphate in biological fluids”. J Immunol Methods 1992, 155:31-40].
The protein precipitate or “pellets” are digested directly by the addition of 0.5 mL of a 0.1 M sodium hydroxide solution, under constant agitation in a shaker type “rotator” (speed 7), for 30 minutes. Posteriorly, this protein fraction is used in the tests to determine proteins, employing a method developed by BRADFORD (1976). [M. M. BRADFORD, “A rapid and sensitive method for the quantitation of microgram quantities of protein utilizing the principle of protein-dye binding”. Analytical Biochemistry, 1976, 72:248-254].

“And” between values parts separate entries of the source, which are not always exact repeats. Equal values may be shown once.

T1 sequence (P25092 24-1073): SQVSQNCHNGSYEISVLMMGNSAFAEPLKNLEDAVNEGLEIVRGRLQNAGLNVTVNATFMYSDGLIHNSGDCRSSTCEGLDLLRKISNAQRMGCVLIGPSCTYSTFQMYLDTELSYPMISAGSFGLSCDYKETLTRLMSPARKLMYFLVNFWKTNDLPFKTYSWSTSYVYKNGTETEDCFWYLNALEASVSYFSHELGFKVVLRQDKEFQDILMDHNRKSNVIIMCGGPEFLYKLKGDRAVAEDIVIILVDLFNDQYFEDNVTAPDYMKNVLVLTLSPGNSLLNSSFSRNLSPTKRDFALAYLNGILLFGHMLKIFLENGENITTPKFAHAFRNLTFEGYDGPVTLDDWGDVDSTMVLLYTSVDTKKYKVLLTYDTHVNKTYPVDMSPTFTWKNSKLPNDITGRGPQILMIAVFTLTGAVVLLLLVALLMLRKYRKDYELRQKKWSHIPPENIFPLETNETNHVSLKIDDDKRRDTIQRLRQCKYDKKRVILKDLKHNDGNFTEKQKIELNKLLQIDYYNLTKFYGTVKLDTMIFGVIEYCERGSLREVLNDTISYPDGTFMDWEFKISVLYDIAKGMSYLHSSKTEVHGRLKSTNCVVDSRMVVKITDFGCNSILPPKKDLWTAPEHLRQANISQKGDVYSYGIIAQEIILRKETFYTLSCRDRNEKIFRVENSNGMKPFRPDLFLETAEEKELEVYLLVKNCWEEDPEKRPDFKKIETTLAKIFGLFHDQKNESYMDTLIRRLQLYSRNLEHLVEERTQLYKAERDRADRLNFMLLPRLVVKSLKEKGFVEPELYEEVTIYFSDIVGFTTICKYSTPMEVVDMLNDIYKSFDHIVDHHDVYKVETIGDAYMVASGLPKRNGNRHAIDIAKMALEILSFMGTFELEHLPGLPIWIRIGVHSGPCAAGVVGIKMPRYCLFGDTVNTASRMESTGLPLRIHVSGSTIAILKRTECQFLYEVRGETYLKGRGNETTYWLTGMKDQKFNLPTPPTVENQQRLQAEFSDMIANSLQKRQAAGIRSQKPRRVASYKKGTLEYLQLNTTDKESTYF

A word on the bioavailability: it is dose-corrected exposure relative to a reference, in per cent. Read a high bioavailability as much systemic uptake. The inhibition is how much of the control response was suppressed. Take `Cn1c2c(c(=O)n(C)c1=O)C(c1ccc3nsnc3c1)C1=C(N2)c2ccccc2C1=O` (stereo not shown) [Compound XI, 5-(2,1,3-benzothiadiazol-5-yl)-1,3-dimethyl-5,11-dihydro-1H-indeno-[2′,1′:5,6]pyrido[2,3-d]pyrimidine-2,4,6-trione]: the bioavailability in series [1] stood at 0.35%. Also, the inhibition at 50 µM at Guanylate Cyclase-C (cGMP accumulation in T84 cells) was ~70%. Further, the “cGMP, pmol/10 min/mg” value on Guanylate Cyclase-C is on record as 171.30 ± 31.68 pmol/10 min/mg.
The term melting point denotes the temperature, or range, at which the solid turns liquid. `Cn1c2c(c(=O)n(C)c1=S)C(c1cc(F)cc(C(F)(F)F)c1)C1=C(N2)c2ccccc2C1=O` (stereo not shown) [Compound III, 5-(3-fluoro-5-trifluoromethylphenyl)-1,3-dimethyl-5,11-dihydro-1H-indeno-[2′,1′:5,6]pyrido[2,3-d]pyrimidine-2-thioxo-4,6-dione] yielded a melting point of 313 °C. The inhibition at 50 µM on Guanylate Cyclase-C (cGMP accumulation in T84 cells) is ~64%. For the same compound, the “cGMP, pmol/10 min/mg” value on Guanylate Cyclase-C amounted to 201.50 ± 44.93 pmol/10 min/mg.
Turning to `CCn1c2c(c(=O)n(C)c1=O)C(c1cc(F)cc(C(F)(F)F)c1)C1=C(N2)c2ccccc2C1=O` (stereo not shown) [Compound IV, 5-(3-fluoro-5-trifluoromethylphenyl)-1-ethyl-3-methyl-5,11-dihydro-1H-indeno-[2′,1′:5,6]pyrido[2,3-d]pyrimidine-2,4,6-trione], the melting point is 177 °C. Further, the bioavailability in series [1] came out at 0.17%. Besides, the inhibition at 50 µM on Guanylate Cyclase-C (cGMP accumulation in T84 cells) was ~86%. The “cGMP, pmol/10 min/mg” value at Guanylate Cyclase-C was determined as 146.80 ± 22.94 pmol/10 min/mg.
Taken in the same sequence, the figures for `CCn1c2c(c(=O)n(C)c1=O)C(c1cc(C(F)(F)F)cc(C(F)(F)F)c1)C1=C(N2)c2ccccc2C1=O` (stereo not shown) [Compound VI, 5-(3,5-bistrifluoromethylphenyl)-1-ethyl-3-methyl-5,11-dihydro-1H-indeno-[2′,1′:5,6]pyrido[2,3-d]pyrimidine-2,4,6-trione] were 166 °C, 0.82%, ~97% and 22.83 ± 3.30 pmol/10 min/mg.
As to `Cn1c2c(c(=O)n(C)c1=S)C(c1cc(C(F)(F)F)cc(C(F)(F)F)c1)C1=C(N2)c2ccccc2C1=O` (stereo not shown) [Compound V, 5-(3,5-bistrifluoromethylphenyl)-1,3-dimethyl-5,11-dihydro-1H-indeno-[2′,1′:5,6]pyrido[2,3-d]pyrimidine-2-thioxo-4,6-dione], the melting point came out at 314 °C. Moreover, the inhibition at 50 µM on Guanylate Cyclase-C (cGMP accumulation in T84 cells) was ~62%.
In the case of `Cn1c2c(c(=O)n(C)c1=O)C(c1cccc3c1OCO3)C1=C(N2)c2ccccc2C1=O` (stereo not shown) [Compound VII, 5-(1,3-benzodioxol-4-yl)-1,3-dimethyl-5,11-dihydro-1H-indeno-[2′,1′:5,6]pyrido[2,3-d]pyrimidine-2,4,6-trione], the inhibition at 50 µM on Guanylate Cyclase-C (cGMP accumulation in T84 cells) is ~12%. The “cGMP, pmol/10 min/mg” value at Guanylate Cyclase-C turned out to be 297.30 ± 39.06 pmol/10 min/mg.
On the same counts, the results for `Cn1c2c(c(=O)n(C)c1=O)C(c1cccc3nsnc13)C1=C(N2)c2ccccc2C1=O` (stereo not shown) [Compound X, 5-(2,1,3-benzothiadiazol-4-yl)-1,3-dimethyl-5,11-dihydro-1H-indeno-[2′,1′:5,6]pyrido[2,3-d]pyrimidine-2,4,6-trione] are ~36% and 668.40 ± 75.46 pmol/10 min/mg.
The compound `Cn1c2c(c(=O)n(C)c1=S)C(c1cccc3c1OCO3)C1=C(N2)c2ccccc2C1=O` (stereo not shown) [Compound VIII, 5-(1,3-benzodioxol-4-yl)-1,3-dimethyl-5,11-dihydro-1H-indeno-[2′,1′:5,6]pyrido[2,3-d]pyrimidine-2-thioxo-4,6-dione] came in with a melting point of 310 °C. For the same compound, on Guanylate Cyclase-C (cGMP accumulation in T84 cells), the inhibition at 50 µM was ~66%. Also, at Guanylate Cyclase-C, the “cGMP, pmol/10 min/mg” value worked out at 350.70 ± 35.80 pmol/10 min/mg.
Regarding `Cn1c2c(c(=O)n(C)c1=S)C(c1csc(C(F)(F)F)c1)C1=C(N2)c2ccccc2C1=O` (stereo not shown) [Compound II], the melting point was determined as 178 °C. In addition, the bioavailability in series [1] came out at 0.16%. Besides, on Guanylate Cyclase-C (cGMP accumulation in T84 cells), the inhibition at 50 µM is ~94%. The “cGMP, pmol/10 min/mg” value on Guanylate Cyclase-C is 57.50 ± 3.16 pmol/10 min/mg.
As to `Cn1c2c(c(=O)n(C)c1=O)C(c1cc(C(F)(F)F)cc(C(F)(F)F)c1)C1=C(N2)c2ccccc2C1=O` (stereo not shown) [FPIPP, reference compound], on Guanylate Cyclase-C (cGMP accumulation in T84 cells), the inhibition at 50 µM was ~94%. Besides, the “% of inhibition (Compound x STa)” value at Guanylate Cyclase-C (test compound 50 μM vs STa (1 μM) group, cGMP accumulation in T84 cells) is ~86% and ~83% and ~87%. Besides, the “cGMP, pmol/10 min/mg” value on Guanylate Cyclase-C is 53.53 ± 6.22 pmol/10 min/mg and 74.83 ± 13.26 pmol/10 min/mg and 56.25 ± 13.61 pmol/10 min/mg and 81.00 ± 14.38 pmol/10 min/mg.
For `Cn1c2c(c(=O)n(C)c1=O)C(c1ccc3c(c1)OCO3)C1=C(N2)c2ccccc2C1=O` (stereo not shown) [Compound IX, 5-(1,3-benzodioxol-5-yl)-1,3-dimethyl-5,11-dihydro-1H-indeno-[2′,1′:5,6]pyrido[2,3-d]pyrimidine-2,4,6-trione], on Guanylate Cyclase-C, the “cGMP, pmol/10 min/mg” value was found to be 703.50 ± 43.11 pmol/10 min/mg.
In the case of `Cn1c2c(c(=O)n(C)c1=O)C(c1csc(C(F)(F)F)c1)C1=C(N2)c2ccccc2C1=O` (stereo not shown) [Compound I], the melting point is 265 °C. Moreover, the inhibition at 50 µM at Guanylate Cyclase-C (cGMP accumulation in T84 cells) is ~62%. In addition, the “cGMP, pmol/10 min/mg” value on Guanylate Cyclase-C amounted to 210.70 ± 6.11 pmol/10 min/mg.
Taken in the same sequence, the figures for `Cn1c2c(c(=O)n(C)c1=S)C(c1ccc3nsnc3c1)C1=C(N2)c2ccccc2C1=O` (stereo not shown) [Compound XII, 5-(2,1,3-benzothiadiazol-5-yl)-1,3-dimethyl-5,11-dihydro-1H-indeno-[2′,1′:5,6]pyrido[2,3-d]pyrimidine-2-thioxo-4,6-dione] were 362 °C, ~64% and 201.50 ± 23.51 pmol/10 min/mg.

(Values after patent US10822333B2, “Pyridopyrimidines derivatives compounds” (BIOLAB SANUS FARMACEUTICA LTDA, priority 2014, dated 2020).)
